# Source: ChEMBL document CHEMBL5465560, “Selectivity Literature for EUbOPEN Chemogenomic Library” (2024)
# Key:
# [1] = target: Protein-tyrosine kinase 6 (Homo sapiens, UniProt Q13882); conditions: at 10 µM
# [2] = target: T1, Serine/threonine-protein kinase 3 (Homo sapiens) (UniProt Q13188); assay: Selectivity interaction (Upstate Kinase Profiler service (Millipore)) EUB0000056c STK3; conditions: at 1 µM
# T1 sequence (whole entry): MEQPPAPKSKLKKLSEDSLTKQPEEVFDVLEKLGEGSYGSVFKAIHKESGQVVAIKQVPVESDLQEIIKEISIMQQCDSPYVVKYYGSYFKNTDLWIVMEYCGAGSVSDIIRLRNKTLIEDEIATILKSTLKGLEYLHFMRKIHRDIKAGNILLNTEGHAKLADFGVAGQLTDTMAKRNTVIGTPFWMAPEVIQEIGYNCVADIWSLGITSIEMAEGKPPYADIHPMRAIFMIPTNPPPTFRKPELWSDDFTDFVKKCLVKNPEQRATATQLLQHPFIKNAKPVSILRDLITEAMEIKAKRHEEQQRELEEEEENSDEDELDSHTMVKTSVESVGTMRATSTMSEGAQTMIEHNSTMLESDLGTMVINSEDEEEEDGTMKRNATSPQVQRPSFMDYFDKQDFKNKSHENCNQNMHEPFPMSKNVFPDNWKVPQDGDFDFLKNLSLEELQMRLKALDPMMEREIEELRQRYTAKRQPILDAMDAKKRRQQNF
# [3] = target: Maternal embryonic leucine zipper kinase (Homo sapiens) (UniProt Q14680); conditions: at 10 µM
# Chain of Maternal embryonic leucine zipper kinase (Homo sapiens) (Q14680 whole entry, looked up): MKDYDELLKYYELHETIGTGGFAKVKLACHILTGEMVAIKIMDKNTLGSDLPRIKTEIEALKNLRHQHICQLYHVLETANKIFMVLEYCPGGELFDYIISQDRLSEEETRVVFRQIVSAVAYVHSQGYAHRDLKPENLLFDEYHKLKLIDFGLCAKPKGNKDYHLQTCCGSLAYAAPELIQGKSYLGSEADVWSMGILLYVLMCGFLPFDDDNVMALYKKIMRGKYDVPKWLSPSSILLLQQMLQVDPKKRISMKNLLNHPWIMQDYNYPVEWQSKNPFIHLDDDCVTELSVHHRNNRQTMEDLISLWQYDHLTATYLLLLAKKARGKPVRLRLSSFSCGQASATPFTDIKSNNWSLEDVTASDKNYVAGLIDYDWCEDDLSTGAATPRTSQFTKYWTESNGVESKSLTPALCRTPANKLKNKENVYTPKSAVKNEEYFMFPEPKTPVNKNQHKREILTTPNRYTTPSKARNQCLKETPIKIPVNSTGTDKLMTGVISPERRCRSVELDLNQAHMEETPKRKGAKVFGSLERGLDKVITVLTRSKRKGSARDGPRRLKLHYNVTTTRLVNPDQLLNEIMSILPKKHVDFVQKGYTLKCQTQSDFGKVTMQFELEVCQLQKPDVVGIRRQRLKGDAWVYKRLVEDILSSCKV
# [4] = target: T2, STE20-related kinase adapter protein alpha (Homo sapiens) (UniProt Q7RTN6); assay: Selectivity interaction (ActivX KiNativ screen (kinase selectivity in THP-1 cell lysates)) EUB0000639a STRADA; assay type: subcellular; conditions: lysate, at 1 µM
# T2 sequence (whole entry): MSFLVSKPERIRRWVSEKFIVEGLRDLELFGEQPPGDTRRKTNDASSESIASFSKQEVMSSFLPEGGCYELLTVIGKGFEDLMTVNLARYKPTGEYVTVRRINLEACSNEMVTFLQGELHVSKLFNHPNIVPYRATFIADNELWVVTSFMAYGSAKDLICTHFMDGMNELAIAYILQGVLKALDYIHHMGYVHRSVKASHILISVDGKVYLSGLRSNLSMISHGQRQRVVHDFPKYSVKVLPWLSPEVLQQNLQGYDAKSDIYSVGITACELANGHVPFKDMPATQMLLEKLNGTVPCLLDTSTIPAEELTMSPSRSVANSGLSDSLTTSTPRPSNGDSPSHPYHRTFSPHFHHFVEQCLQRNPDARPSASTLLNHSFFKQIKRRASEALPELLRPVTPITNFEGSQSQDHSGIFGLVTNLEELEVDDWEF
# [5] = target: MAP kinase-interacting serine/threonine-protein kinase 1 (Homo sapiens) (UniProt Q9BUB5); assay: Selectivity interaction (KinomeScan (DiscoverX)) EUB0000618a MKNK1; conditions: at 10 µM
# Chain of MAP kinase-interacting serine/threonine-protein kinase 1 (Homo sapiens) (Q9BUB5 whole entry, looked up): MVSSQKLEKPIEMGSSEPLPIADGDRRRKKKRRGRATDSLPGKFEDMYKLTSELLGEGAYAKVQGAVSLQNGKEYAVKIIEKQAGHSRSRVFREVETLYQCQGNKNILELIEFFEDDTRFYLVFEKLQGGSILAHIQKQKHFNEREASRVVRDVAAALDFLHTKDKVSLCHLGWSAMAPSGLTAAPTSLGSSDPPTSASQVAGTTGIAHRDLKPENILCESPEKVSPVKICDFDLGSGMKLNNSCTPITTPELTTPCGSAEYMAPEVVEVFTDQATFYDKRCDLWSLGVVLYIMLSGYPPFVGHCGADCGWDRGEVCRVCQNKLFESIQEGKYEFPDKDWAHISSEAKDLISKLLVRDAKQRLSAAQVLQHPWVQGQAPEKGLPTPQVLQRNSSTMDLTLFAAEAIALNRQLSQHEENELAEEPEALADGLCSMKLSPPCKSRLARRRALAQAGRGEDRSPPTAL
# [6] = target: Mitogen-activated protein kinase 1 (Homo sapiens, UniProt P28482); assay: Selectivity interaction (KinomeScan (DiscoverX)) EUB0001619a MAPK1; conditions: at 1 µM
# Chain of Mitogen-activated protein kinase 1 (P28482 whole entry): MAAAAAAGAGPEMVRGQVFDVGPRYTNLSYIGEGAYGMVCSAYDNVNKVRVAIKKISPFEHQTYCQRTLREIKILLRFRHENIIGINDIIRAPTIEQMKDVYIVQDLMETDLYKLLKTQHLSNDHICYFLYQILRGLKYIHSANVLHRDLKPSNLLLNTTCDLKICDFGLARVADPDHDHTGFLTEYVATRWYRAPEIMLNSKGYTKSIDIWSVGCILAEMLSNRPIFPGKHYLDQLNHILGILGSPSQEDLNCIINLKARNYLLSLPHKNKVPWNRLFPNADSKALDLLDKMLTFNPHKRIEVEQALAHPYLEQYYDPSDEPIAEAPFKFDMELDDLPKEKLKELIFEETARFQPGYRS
# [7] = target: T3, Tyrosine-protein kinase Mer (Homo sapiens) (UniProt Q12866); assay: Selectivity interaction (KinomeScan (DiscoverX)) EUB0001619a MERTK; conditions: at 1 µM
# T3 sequence (whole entry): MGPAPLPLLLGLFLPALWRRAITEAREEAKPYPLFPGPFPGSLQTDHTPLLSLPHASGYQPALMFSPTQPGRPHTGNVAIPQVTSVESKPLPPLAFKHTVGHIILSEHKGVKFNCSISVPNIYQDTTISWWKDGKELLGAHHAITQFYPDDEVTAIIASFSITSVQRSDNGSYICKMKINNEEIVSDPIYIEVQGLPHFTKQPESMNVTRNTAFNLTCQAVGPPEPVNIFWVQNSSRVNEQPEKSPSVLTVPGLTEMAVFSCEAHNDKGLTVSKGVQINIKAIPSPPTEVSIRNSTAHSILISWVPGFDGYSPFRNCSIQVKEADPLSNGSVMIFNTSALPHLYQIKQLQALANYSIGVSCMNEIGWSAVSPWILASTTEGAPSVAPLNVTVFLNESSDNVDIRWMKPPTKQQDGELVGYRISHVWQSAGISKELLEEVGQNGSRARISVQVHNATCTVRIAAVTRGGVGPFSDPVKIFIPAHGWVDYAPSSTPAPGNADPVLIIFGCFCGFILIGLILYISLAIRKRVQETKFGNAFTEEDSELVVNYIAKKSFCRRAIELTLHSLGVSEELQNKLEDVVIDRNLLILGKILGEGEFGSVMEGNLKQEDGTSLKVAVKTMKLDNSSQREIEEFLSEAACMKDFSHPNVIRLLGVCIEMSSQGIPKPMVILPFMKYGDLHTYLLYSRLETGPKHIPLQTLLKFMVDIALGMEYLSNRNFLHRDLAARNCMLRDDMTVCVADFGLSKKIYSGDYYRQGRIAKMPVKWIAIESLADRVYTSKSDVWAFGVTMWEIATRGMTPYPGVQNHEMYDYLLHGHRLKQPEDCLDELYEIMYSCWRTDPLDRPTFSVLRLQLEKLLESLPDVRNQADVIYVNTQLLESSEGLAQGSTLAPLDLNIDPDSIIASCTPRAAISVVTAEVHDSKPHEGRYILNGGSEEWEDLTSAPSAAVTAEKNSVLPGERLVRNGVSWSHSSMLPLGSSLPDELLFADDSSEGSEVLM
# [8] = target: T4, Serine/threonine-protein kinase ULK3 (Homo sapiens) (UniProt Q6PHR2); assay: Selectivity interaction (KinomeScan (DiscoverX)) EUB0001619a ULK3; conditions: at 1 µM
# T4 sequence (whole entry): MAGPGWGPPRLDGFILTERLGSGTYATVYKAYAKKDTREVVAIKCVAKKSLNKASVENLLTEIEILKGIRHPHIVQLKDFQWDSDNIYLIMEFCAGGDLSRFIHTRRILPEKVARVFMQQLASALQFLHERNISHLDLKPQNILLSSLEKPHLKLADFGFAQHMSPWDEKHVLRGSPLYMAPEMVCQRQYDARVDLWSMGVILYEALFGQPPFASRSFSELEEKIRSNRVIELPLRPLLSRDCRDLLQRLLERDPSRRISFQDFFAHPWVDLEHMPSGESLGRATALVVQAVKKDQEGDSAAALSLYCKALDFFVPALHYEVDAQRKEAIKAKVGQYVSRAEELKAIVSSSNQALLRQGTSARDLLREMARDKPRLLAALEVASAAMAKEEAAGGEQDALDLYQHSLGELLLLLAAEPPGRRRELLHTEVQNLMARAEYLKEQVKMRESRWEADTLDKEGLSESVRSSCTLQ
# Chain of Protein-tyrosine kinase 6 (Q13882 whole entry, looked up): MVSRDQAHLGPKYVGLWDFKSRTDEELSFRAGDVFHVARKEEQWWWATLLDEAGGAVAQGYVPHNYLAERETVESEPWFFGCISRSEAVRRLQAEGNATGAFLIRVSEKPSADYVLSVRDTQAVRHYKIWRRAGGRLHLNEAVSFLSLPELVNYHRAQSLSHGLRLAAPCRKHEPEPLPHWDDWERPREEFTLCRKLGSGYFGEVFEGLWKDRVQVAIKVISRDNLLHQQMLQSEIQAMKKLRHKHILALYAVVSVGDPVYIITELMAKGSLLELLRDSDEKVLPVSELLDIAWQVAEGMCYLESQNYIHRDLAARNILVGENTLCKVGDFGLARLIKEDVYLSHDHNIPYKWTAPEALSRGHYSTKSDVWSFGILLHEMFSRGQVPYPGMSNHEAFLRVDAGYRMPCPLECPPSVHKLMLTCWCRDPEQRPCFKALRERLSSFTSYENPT
smiles,measurement,setting,value
CCN(CC)CCCCNc1ncc2cc(-c3cc(OC)cc(OC)c3)c(NC(=O)NC(C)(C)C)nc2n1,% of control,[1],100%
Cc1ccc(-c2ccc3c(ccc4sc5c(c43)NC[C@@H](C)NC5=O)n2)cn1,% of inhibition,[2],-17%
Cc1cc([C@@H](C)Nc2ccccc2C(=O)O)c2nc(N3CCOCC3)cc(=O)n2c1 [AZD-6482],% of control,[3],100%
CC[C@@H]1[C@H](F)C(=O)N[C@@H]1COc1nccc2cc(C(N)=O)c(OC)cc12 [ZIMLOVISERTIB],% of inhibition,[4],-7.6%
O[C@H]1CC[C@H](Nc2ncc3nc(Nc4c(F)cc(F)cc4F)n([C@H]4CCOC4)c3n2)CC1,% of control,[5],94%
N#Cc1cccc(-c2c[nH]c3ncnc(N4CCOCC4)c23)c1,% of control,[6],98%
same,% of control,[7],100%
same,% of control,[8],25%
